From ChEMBL document CHEMBL3132769, “Fragment growing to retain or alter the selectivity of anchored kinase hinge-binding fragments” (Medchemcomm, 2014)

Experiments:
[1] = target: Cyclin-dependent kinase 2 (Homo sapiens) (UniProt P24941); experiment: Inhibition of human full length CDK2 expressed in baculovirus assessed as substrate phosphorylation using fluorescence-labelled peptides as substrate at 9 uM after 90 mins by microfluidic peptide phosphorylation assay
[2] = target: Tyrosine-protein kinase Fyn (Homo sapiens) (UniProt P06241); experiment: Inhibition of human full length FYN expressed in baculovirus assessed as substrate phosphorylation using fluorescence-labelled peptides as substrate at 95 uM after 90 mins by microfluidic peptide phosphorylation assay
Tyrosine-protein kinase Fyn (Homo sapiens), sequence (P06241 2-537 limits assumed): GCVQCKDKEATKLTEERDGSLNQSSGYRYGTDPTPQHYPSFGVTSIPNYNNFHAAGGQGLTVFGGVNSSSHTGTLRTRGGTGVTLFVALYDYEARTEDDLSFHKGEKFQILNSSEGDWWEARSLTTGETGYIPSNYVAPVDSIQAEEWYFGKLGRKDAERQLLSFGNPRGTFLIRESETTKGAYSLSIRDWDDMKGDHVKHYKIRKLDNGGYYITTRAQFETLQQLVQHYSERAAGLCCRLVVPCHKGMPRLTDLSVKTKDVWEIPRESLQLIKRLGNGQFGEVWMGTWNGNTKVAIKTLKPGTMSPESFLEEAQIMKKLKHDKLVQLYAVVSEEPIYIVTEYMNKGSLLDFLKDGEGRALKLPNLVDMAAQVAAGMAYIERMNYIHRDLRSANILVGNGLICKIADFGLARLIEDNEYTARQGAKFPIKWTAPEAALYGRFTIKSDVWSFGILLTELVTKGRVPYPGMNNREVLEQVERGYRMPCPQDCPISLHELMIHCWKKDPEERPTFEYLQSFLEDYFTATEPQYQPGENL

[3] = target: Glycogen synthase kinase-3 beta (Homo sapiens) (UniProt P49841); experiment: Inhibition of human full length GSK-3 beta expressed in baculovirus assessed as substrate phosphorylation using fluorescence-labelled peptides as substrate at 95 uM after 90 mins by microfluidic peptide phosphorylation assay
Glycogen synthase kinase-3 beta (Homo sapiens), sequence (P49841 whole entry, looked up, the tested form may be a part): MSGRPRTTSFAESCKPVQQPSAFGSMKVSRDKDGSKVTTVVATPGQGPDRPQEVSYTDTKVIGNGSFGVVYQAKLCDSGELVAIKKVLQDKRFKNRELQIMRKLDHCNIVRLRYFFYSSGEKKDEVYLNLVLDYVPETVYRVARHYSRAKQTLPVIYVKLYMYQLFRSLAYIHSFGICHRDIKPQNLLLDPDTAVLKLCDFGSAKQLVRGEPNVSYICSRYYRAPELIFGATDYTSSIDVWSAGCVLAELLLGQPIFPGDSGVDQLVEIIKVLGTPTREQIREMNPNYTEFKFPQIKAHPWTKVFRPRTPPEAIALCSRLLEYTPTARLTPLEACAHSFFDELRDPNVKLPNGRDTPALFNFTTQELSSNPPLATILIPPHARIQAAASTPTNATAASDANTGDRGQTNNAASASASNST

[4] = target: Protein kinase C beta type (Homo sapiens) (UniProt P05771); experiment: Inhibition of human truncated PKC beta1 expressed in baculovirus assessed as substrate phosphorylation using fluorescence-labelled peptides as substrate at 0.06 uM after 90 mins by microfluidic peptide phosphorylation assay
[5] = target: T1, Serine/threonine-protein kinase 3 (Homo sapiens) (UniProt Q13188); experiment: Inhibition of human full length MST2 expressed in baculovirus assessed as substrate phosphorylation using fluorescence-labelled peptides as substrate at 0.06 uM after 90 mins by microfluidic peptide phosphorylation assay
T1 sequence (whole entry): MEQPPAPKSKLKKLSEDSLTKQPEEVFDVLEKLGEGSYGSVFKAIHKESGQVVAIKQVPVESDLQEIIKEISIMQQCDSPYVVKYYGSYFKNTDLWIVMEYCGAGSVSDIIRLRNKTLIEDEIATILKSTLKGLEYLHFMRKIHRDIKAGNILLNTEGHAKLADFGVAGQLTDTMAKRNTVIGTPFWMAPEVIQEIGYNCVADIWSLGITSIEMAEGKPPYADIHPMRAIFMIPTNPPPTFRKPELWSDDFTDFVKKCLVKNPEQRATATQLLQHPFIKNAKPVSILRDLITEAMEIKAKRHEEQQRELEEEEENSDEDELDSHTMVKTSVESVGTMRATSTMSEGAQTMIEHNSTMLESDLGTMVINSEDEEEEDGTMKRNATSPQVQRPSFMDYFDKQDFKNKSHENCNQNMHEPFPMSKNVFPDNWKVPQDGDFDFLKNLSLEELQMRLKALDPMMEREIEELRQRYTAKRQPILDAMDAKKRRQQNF

[6] = target: Mitogen-activated protein kinase kinase kinase kinase 4 (Homo sapiens) (UniProt O95819); experiment: Inhibition of human HGK catalytic domain expressed in baculovirus assessed as substrate phosphorylation using fluorescence-labelled peptides as substrate at […] after 90 mins by microfluidic peptide phosphorylation assay
Mitogen-activated protein kinase kinase kinase kinase 4 (Homo sapiens), sequence (O95819 2-1239 limits assumed): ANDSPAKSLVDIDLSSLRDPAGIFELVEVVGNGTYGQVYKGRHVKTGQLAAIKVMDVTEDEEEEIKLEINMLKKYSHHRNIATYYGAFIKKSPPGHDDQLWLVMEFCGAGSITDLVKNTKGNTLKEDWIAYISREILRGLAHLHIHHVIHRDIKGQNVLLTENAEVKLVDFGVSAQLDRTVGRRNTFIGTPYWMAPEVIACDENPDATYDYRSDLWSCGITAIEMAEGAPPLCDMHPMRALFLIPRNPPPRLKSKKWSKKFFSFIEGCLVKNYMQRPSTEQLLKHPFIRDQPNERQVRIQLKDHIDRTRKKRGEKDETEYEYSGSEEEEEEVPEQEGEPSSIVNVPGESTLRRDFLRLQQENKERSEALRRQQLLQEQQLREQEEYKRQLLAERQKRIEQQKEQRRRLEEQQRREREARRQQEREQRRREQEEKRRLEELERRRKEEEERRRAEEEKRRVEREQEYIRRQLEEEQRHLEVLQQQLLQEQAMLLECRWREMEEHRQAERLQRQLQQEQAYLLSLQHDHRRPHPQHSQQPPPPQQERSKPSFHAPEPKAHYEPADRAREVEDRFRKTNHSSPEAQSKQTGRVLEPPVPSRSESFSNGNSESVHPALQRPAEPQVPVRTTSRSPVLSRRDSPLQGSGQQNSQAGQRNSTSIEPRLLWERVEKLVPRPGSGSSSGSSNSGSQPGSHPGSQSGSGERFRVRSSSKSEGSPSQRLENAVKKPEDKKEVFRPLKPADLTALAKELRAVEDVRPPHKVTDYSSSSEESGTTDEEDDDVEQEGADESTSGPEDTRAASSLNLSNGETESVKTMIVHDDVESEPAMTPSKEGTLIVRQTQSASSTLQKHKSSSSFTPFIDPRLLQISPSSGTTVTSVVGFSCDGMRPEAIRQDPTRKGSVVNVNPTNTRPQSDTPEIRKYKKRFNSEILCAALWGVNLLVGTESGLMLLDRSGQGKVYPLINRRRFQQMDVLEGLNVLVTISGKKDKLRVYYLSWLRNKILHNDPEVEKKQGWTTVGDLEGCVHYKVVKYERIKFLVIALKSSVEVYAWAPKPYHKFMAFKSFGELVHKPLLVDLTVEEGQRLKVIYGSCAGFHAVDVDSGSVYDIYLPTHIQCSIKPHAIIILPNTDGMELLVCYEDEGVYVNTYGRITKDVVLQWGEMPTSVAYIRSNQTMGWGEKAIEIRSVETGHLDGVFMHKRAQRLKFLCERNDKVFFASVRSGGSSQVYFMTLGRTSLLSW

[7] = target: Tyrosine-protein kinase ABL1 (Homo sapiens) (UniProt P00519); experiment: Inhibition of human full-length ABL expressed in baculovirus assessed as substrate phosphorylation using fluorescence-labelled peptides as substrate at 420 uM after 90 mins by microfluidic peptide phosphorylation assay
Tyrosine-protein kinase ABL1 (Homo sapiens), sequence (P00519 whole entry, canonical isoform): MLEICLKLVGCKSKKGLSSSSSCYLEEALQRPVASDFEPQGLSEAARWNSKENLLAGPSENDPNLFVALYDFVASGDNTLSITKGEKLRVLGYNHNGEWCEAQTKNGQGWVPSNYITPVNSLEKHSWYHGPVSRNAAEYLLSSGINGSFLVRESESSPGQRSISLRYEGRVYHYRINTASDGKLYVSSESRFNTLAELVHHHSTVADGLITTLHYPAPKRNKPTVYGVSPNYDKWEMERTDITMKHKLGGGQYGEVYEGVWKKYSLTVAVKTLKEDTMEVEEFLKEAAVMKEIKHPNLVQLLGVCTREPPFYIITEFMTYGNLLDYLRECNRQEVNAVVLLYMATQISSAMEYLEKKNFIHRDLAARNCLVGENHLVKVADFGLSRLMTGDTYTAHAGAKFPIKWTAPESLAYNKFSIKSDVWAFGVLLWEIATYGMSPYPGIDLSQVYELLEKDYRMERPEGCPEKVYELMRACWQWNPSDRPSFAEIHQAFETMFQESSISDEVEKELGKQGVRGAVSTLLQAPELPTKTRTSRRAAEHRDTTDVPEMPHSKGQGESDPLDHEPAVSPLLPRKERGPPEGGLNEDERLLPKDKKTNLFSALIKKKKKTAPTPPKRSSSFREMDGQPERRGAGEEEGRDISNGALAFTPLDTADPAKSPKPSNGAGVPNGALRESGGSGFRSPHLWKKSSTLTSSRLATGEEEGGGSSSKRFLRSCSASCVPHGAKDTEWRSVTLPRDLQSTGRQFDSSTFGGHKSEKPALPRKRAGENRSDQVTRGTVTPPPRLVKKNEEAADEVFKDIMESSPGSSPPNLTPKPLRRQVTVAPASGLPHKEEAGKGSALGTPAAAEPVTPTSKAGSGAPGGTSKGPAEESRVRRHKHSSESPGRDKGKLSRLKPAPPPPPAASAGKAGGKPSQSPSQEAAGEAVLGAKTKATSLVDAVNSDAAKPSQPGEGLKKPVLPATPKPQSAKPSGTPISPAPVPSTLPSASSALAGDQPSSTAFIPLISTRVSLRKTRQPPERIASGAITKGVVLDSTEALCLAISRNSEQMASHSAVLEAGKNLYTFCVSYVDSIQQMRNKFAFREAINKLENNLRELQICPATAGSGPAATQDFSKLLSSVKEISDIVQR

[8] = target: Casein kinase I isoform alpha (Homo sapiens) (UniProt P48729); experiment: Inhibition of human full length CSNK1A1 expressed in baculovirus assessed as substrate phosphorylation using fluorescence-labelled peptides as substrate at 70 uM after 90 mins by microfluidic peptide phosphorylation assay
Casein kinase I isoform alpha (Homo sapiens), sequence (P48729 2-337 limits assumed): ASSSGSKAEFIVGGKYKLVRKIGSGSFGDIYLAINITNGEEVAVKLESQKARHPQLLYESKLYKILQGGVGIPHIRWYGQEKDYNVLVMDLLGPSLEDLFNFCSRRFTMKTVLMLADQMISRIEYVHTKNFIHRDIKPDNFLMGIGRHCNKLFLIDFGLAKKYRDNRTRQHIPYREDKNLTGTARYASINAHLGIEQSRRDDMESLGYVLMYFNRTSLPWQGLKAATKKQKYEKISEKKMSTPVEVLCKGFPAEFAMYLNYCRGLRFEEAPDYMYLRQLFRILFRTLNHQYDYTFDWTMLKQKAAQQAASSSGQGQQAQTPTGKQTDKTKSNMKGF

[9] = target: Serine/threonine-protein kinase MARK1 (Homo sapiens) (UniProt Q9P0L2); experiment: Inhibition of human full length MARK1 expressed in baculovirus assessed as substrate phosphorylation using fluorescence-labelled peptides as substrate at 70 uM after 90 mins by microfluidic peptide phosphorylation assay
[10] = target: T2, Serine/threonine-protein kinase BRSK2 (Homo sapiens) (UniProt Q8IWQ3); experiment: Inhibition of human truncated BRSK2 expressed in baculovirus assessed as substrate phosphorylation using fluorescence-labelled peptides as substrate at 0.2 uM after 90 mins by microfluidic peptide phosphorylation assay
T2 sequence (whole entry): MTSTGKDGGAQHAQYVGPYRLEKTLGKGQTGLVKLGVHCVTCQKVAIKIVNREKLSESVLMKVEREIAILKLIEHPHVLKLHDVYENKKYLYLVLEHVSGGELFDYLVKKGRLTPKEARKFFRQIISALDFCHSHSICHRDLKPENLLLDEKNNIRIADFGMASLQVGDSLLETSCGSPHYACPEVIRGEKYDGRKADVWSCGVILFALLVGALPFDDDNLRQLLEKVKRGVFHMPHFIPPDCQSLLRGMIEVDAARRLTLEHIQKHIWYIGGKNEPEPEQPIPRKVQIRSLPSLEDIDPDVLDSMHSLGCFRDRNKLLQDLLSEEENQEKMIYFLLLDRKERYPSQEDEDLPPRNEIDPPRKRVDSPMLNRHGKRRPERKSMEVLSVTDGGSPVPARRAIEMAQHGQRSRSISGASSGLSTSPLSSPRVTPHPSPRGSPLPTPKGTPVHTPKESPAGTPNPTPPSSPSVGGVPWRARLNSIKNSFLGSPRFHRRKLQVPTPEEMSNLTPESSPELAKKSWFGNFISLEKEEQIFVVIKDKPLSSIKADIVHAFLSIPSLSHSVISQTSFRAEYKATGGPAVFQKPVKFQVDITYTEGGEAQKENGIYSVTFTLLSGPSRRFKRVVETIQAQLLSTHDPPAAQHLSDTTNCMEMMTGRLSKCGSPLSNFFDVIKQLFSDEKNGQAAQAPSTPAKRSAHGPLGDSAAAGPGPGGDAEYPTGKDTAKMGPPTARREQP

[11] = target: Proto-oncogene tyrosine-protein kinase Src (Homo sapiens) (UniProt P12931); experiment: Inhibition of human full length SRC expressed in baculovirus assessed as substrate phosphorylation using fluorescence-labelled peptides as substrate at 2 uM after 90 mins by microfluidic peptide phosphorylation assay
Proto-oncogene tyrosine-protein kinase Src (Homo sapiens), sequence (P12931 2-536 limits assumed): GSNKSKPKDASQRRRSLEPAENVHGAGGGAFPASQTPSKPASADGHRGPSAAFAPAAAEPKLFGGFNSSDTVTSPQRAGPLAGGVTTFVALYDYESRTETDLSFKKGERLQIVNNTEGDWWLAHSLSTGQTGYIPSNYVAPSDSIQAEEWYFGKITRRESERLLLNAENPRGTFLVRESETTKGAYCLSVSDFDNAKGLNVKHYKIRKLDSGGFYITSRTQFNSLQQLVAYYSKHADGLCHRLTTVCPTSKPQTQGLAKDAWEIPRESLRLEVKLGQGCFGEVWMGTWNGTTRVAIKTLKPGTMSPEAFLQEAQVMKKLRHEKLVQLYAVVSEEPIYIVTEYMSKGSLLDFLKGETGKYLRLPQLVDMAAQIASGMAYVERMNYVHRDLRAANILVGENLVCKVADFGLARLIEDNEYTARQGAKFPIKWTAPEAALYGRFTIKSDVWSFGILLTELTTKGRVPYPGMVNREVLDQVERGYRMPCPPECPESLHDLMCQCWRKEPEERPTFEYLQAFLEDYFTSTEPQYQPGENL

[12] = target: Calcium/calmodulin-dependent protein kinase type II subunit gamma (Homo sapiens) (UniProt Q13555); experiment: Inhibition of human CAMK2 gamma catalytic domain expressed in baculovirus assessed as substrate phosphorylation using fluorescence-labelled peptides as substrate at 1000 uM after 90 mins by microfluidic peptide phosphorylation assay
Calcium/calmodulin-dependent protein kinase type II subunit gamma (Homo sapiens), sequence (Q13555 whole entry, the tested form may be a part): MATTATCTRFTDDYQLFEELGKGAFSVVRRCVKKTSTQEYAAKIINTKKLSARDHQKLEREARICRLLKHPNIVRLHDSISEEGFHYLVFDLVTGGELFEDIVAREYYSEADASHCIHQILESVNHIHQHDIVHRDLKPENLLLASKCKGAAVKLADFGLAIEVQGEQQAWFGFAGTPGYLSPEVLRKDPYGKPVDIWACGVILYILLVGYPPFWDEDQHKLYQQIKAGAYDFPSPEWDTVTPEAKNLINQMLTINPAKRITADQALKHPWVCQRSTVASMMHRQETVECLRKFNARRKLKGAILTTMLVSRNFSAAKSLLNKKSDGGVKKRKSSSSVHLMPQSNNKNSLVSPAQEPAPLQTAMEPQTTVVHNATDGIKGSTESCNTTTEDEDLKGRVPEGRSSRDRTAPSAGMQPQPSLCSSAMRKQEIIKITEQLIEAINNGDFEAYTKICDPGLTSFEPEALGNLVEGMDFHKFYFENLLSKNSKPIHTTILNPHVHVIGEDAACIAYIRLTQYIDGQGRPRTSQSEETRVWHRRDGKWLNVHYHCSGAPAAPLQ

[13] = target: RAC-alpha serine/threonine-protein kinase (Homo sapiens) (UniProt P31749); settings: 1000 uM
Description: Inhibition of human AKT1 catalytic domain expressed in baculovirus assessed as substrate phosphorylation using fluorescence-labelled peptides as substrate at 1000 uM after 90 mins by microfluidic peptide phosphorylation assay

SMILES: NCC1CN(c2ncnc3[nH]c4cnccc4c23)CCO1 (stereo not drawn)
- inhibition [1]: 26.5%

SMILES: NCCc1ccc(-c2ncnc3[nH]cnc23)cc1
- inhibition [2]: 64.5%
- inhibition [3]: 55%

SMILES: NC1(Cc2ccc(Cl)cc2)CCN(c2ncnc3[nH]ccc23)CC1
- inhibition [4]: 3.5%
- inhibition [5]: 3%

SMILES: COC(=O)c1cnc(Nc2cnc(C#N)cn2)cc1NCC1CCNCC1
- inhibition [6]: 3%

SMILES: c1nc(N2CCOCC2)c2nc[nH]c2n1
- inhibition [7]: 69%

SMILES: CNCc1ccc(-c2ncnc3[nH]cnc23)cc1
- inhibition [8]: 45.5%
- inhibition [9]: 52%

SMILES: Clc1ccc(C2(c3ccc(-c4ncnc5[nH]cnc45)cc3)CCNCC2)cc1
- inhibition [10]: 13%

SMILES: NC1CCN(c2ncnc3[nH]ccc23)CC1
- inhibition [11]: 0%

SMILES: c1cnc2[nH]ccc2c1
- inhibition [12]: 24.5%
- inhibition [13]: 65.5%
